According to US11691984B2, “Compounds and methods for DCAF-mediated protein degradation” (The Scripps Research Institute, priority 2018, dated 2023):

Key:
Type in all cases: cell-based
FLAG-FKBP12_NLS = FLAG-FKBP12_NLS (Homo sapiens, UniProt P62942); assay: Anti-FLAG western blot of stably expressed nuclear FKBP12 (FLAG-FKBP12_NLS) in HEK293T cells; design: expressed in transfected cells; host or cells: HEK293T, MDA-MB-231 and HEK293 DCAF16+/+ and DCAF16-/- clones (lentiviral pCDH-CMV-MCS-EF1-Puro); settings: HEK293T
Sequence of FLAG-FKBP12_NLS (P62942 whole entry): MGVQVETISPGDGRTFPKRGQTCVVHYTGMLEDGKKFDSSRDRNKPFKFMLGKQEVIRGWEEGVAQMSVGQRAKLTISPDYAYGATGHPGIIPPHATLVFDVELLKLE
Description: FLAG-tagged variants of FKBP12 (FLAG-FKBP12) or (2) FKBP12 with a C-terminal nuclear localization sequence (FLAG-FKBP12_NLS) were then stably expressed in HEK293T cells to provide cell models for evaluating cytosolic- and nuclear-localized E3-mediated degradation pathways, respectively.
FLAG-FKBP12 or FLAG-FKBP12_NLS lentivirus was generated by co-transfection of FLAG-FKBP12 or FLAG-FKBP12_NLS, pCMV-dR8.2 and pMD2.G into HEK 293T cells using FuGene 6 transfection reagent (Promega). Virus-containing medium were collected 48 h after transfection, filtered with […] filter, and used to transduce HEK293T and MDA-MB-231 cells in the presence of 10 μg/mL polybrene (Santa Cruz). 72 h after transduction, puromycin (2 μg/mL) was added to cells. HEK293T cells stably expressing FLAG-FKBP12 or FLAG-FKBP12_NLS were obtained after puromycin selection for 7 days. HEK293T cells stably expressing pCDH empty vector were generated in parallel as control.
shRNA lentivirus was generated by co-transfection of shRNA-containing vector, pCMV-dR8.2 and pMD2.G into HEK 293T cells using FuGene 6 transfection reagent (Promega). Virus-containing medium were collected 48 h after transfection and used to transiently transduce HEK293T cells stably expressing FLAG-FKBP12_NLS for 48 h. Lentiviral shRNAs targeting human DCAF16 or DTL were in pLKO.1 vector and purchased from Sigma. The sequences of shRNAs is described below.
(§1) Cells were collected and lysed in 1% NP-40 lysis buffer (25 mM Tris-HCl pH 7.4, 150 mM NaCl, 10% glycerol, 1% Nonidet P-40) with complete protease inhibitor cocktail (Roche). Cells were vortexed and sonicated for 5 pulses (40%, 4). The supernatant was collected after centrifugation at 16,000 g for 10 min at 4° C. Protein concentration was determined by DC assay (Bio-Rad). Protein lysate was heated at 95° C. for 5 min in 1× Laemmli sample buffer. Proteins were resolved by 12% or 14% Novex Tris-Glycine Mini Gels (Invitrogen) and transferred to polyvinylidene fluoride (PVDF) membrane (0.2 Bio-Rad). The membrane was blocked with 5% BSA in TBST buffer (0.1% Tween 20, 20 mM Tris-HCl 7.6, 150 mM NaCl) at room temperature for 1 h. The antibody was diluted with fresh 5% BSA in TBST buffer (1:10000 dilution for FLAG, HA and β-Actin, 1:1000 dilution for others) and incubated with membrane (1 h room temperature for FLAG, HA and β-Actin, overnight 4° C. for others). Membrane was washed three times with TBST buffer and incubated with secondary antibody (1:5000 dilution in 5% BSA in TBST) at room temperature for 1 h. Membrane was washed three times with TBST buffer. The chemiluminescence signal in membrane was recorded after developing in ECL or ECL plus western blotting detection reagent using CL-XPosure film (Thermo Scientific). Relative band intensities were quantified using ImageJ.

HA-DCAF16 = molecular target: T1, HA-DCAF16 (Homo sapiens, UniProt Q9NXF7); assay: Western blot of HA-DCAF16 in DCAF16−/− cells; settings: KB02-SLF 1.5 μM, 8 hours
T1 construct: expressed in transfected cells; host or cells: HEK293T (A9); DCAF16-/- HEK293 clones (A20); pRK5 vector
T1 sequence (Q9NXF7 whole entry): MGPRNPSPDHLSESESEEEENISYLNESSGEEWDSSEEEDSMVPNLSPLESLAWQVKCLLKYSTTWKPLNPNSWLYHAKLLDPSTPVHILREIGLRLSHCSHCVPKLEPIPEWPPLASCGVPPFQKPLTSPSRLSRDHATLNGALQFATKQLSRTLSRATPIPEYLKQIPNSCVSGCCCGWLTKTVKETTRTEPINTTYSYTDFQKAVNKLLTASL
Description: as §1

BRD3 = molecular target: T2, BRD3 (Homo sapiens, UniProt Q15059); assay: Proteome-wide SILAC MS protein abundance in HEK293T cells: BRD3; settings: KB02-JQ1 20 μM, 24 hours
T2 construct: endogenous in cells; host or cells: HEK293T
T2 sequence (Q15059 whole entry): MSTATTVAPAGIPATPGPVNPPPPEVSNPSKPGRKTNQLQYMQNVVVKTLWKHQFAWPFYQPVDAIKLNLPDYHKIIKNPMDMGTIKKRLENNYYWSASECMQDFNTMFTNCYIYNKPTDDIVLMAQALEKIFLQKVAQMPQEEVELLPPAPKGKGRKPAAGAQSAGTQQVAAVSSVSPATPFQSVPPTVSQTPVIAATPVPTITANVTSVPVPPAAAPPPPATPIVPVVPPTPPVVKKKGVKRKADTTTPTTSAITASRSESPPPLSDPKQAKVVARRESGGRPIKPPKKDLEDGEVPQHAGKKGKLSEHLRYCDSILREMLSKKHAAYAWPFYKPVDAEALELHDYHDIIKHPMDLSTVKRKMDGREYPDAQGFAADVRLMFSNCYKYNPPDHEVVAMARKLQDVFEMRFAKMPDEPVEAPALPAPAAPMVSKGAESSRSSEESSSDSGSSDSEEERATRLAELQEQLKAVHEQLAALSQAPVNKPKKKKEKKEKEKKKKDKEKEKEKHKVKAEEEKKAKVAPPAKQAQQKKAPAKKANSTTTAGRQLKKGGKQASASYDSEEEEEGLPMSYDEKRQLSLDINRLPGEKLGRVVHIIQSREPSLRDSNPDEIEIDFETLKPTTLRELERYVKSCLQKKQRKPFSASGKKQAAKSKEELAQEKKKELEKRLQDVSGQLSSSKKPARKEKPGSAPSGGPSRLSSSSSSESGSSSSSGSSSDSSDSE
Description: HEK293T light and heavy SILAC cells were treated with DMSO and KB02-JQ1 (20 μM) or KB02-SLF (2 μM) for 24 hours, respectively. Light and heavy cells were collected and lysed in 1% NP-40 lysis buffer with complete protease inhibitor cocktail. Cells were vortexed and sonicated for 5 pulses (40%, 4). The supernatant was collected after centrifugation at 16,000 g for 10 min at 4° C. Protein concentration was determined by DC assay. 50 μg proteome from light and heavy samples were mixed, followed by methanol/chloroform precipitation. […] Next, the ratio of the peak areas under the light and heavy signals (signal-to-noise ratio>2.5) was calculated. […] In addition, peptides detected as ‘singletons,’ where only the heavy ion of a peptide pair was identified, but that cleared all other filtering parameters, were given a default assigned ratio of ‘20,’ which is defined as any measured ratio that is ≥20 and is the maximum ratio reported here.” The median SILAC ratios from quantified peptides were used as measures of protein abundance. The following quality filters were further applied to generate the plot: (1) proteins must have at least two quantified peptides; (2) proteins must be present in both replicates; (3) for each protein, the standard deviation of measured ratios of peptides must be <1.0.

Row | BRD3 abundance (MS-based proteomics) (BRD3) | SMILES | concentration for degradation of FKBP12_NLS (FLAG-FKBP12_NLS) | nuclear FKBP12 (FKBP12_NLS) protein level (FLAG-FKBP12_NLS; 2 μM, 8 or 24 h) | KB02-SLF-mediated degradation of FKBP12_NLS after shRNA knockdown of DCAF16 (FLAG-FKBP12_NLS; KB02-SLF 2 μM, 8 h) | KB02-SLF-mediated degradation of FKBP12_NLS after shRNA knockdown of DTL (FLAG-FKBP12_NLS; KB02-SLF 2 μM, 8 h) | time frame across which the reduction in nuclear FKBP12 was sustained (FLAG-FKBP12_NLS; KB02-SLF, FIG. 5A) | concentration across which loss of FKBP12_NLS was promoted (FLAG-FKBP12_NLS; reductions in activity at higher concentrations, in µM) | degradation of HA-DCAF16 (HA-DCAF16)
1 |  | CCC(C)(C)C(=O)C(=O)N1CCCC[C@H]1C(=O)O[C@H](CCc1ccc(OC)c(OC)c1)c1cccc(NC(=O)CCOCCOCCNC(=O)COc2ccc3c(c2)CCCN3C(=O)CCl)c1 [KB02-SLF, (R)-1-(3-(3-(2-(2-(2-((1-(2-chloroacetyl)-1,2,3,4-tetrahydroquinolin-6-yl)oxy)acetamido)ethoxy)ethoxy)propanamido)phenyl)-3-(3,4-dimethoxyphenyl)propyl (S)-1-(3,3-dimethyl-2-oxopentanoyl)piperidine-2-carboxylate] | 0.5 to 2 µM | substantial reduction in nuclear FKBP12 | substantially prevented KB02-SLF-mediated degradation of FKBP12_NLS | not DTL | 4 to 72 h | 0.5-5 | degradation of HA-DCAF16 was not observed
2 | not BRD2 or BRD3 | Cc1sc2c(c1C)C(c1ccc(Cl)cc1)=N[C@@H](CC(=O)NCCOCCOCCNC(=O)COc1ccc3c(c1)CCCN3C(=O)CCl)c1nnc(C)n1-2 [KB02-JQ1, (S)-2-((1-(2-chloroacetyl)-1,2,3,4-tetrahydroquinolin-6-yl)oxy)-N-(2-(2-(2-(2-(4-(4-chlorophenyl)-2,3,9-trimethyl-6H-thieno[3,2-f][1,2,4]triazolo[4,3-a][1,4]diazepin-6-yl)acetamido)ethoxy)ethoxy)ethyl)acetamide] |  |  |  |  |  |  | 
